The values that follow come from patent US20120035165A1, “Use of fungicidal compound compositions for controlling certain rust fungi” (Bayer CropScience AG, priority 2008, published 2012).

The assay relates to Phakopsora pachyrhizi. The experiment in a line: Phakopsora test (soybeans)/protective. Type of assay: in vivo, Phakopsora pachyrhizi on soybeans. Particulars: protective spray on young soybean plants, inoculated 1 day after spraying, evaluated 10 days after inoculation. The procedure: Phakopsora Test (Soybeans)/Protective Solvent: 28.5 parts by weight of acetone Emulsifier: 1.5 parts by weight of polyoxyethylene alkyl phenyl ether To produce a suitable preparation of active compound, 1 part by weight of active compound or active compound combination is mixed with the stated amounts of solvent and emulsifier, and the concentrate is diluted with water to the desired concentration. To test for protective activity, young plants are sprayed with the preparation of active compound or active compound combination at the stated rate of application. After the spray coating has dried on, the plants are placed in a greenhouse at a temperature of approximately 23° C. and a relative atmospheric humidity of approximately 70%. 1 day after spraying, the plants are inoculated with an aqueous spore suspension of the causal agent of soybean rust (Phakopsora pachyrhizi). The plants are then placed in a greenhouse at approximately 20° C. and a relative atmospheric humidity of approximately 80%. The test is evaluated 10 days after the inoculation. 0% means an efficacy which corresponds to that of the control, while an efficacy of 100% means that no disease is observed.

For `OC(Cc1ccccc1Cl)(Cn1nc[nH]c1=S)C1(Cl)CC1` (centres unmarked) [(III-1) Prothioconazole, Prothioconazole], the Efficacy in % (rate of application 0.5 ppm) is given as 50%.
Consider `Cn1cc(C(=O)Nc2ccc(F)cc2-c2ccc(Cl)c(Cl)c2)c(C(F)F)n1` [(I-2) Bixafen, N-(3′,4′-dichloro-5-fluoro-1,1′-biphenyl-2-yl)-3-(difluoromethyl)-1-methyl-1H-pyrazole-4-carboxamide], for which the Efficacy in % (rate of application 10 ppm) amounted to 50%.
